Measured values published in patent publication EP0443899A1, “Process for synthetising oligomers of (methylbenzyl)xylene and their use as dielectric” (ELF ATOCHEM S.A., priority 1990, dated 1991).

Assays:
Format in all cases: physicochemical
[1] = Breakdown voltage, alternating current 50 Hz, method 2 (ramp 1000 V/30 s, asymmetric point/disc electrodes); parameters: unit not given here; details: 50 Hz AC, 1000V every 30 s, point ø 0,6, disc ø 39,6, mean (extreme values)
From the text: (§1) Nous avons comparé différents liquides par la mesure de leur tension de claquage en courant alternatif 50 Hz dans les 2 conditions suivantes (méthodes 1 et 2) : • 1 - rampe 2000 V/s - électrodes dissymétriques. • pointe diamètre 0,6 mm • disque à bords arrondis Rogowski, diamètre 39,6 mm • distance interélectrode = 3,2 mm • 2 - rampe 1000 V/30s - électrodes dissymétriques • pointe diamètre 0,6 mm • disque diamètre 39,6 mm • distance 3,2-10-15-20 mm

[2] = Crystallisation of the dielectric liquids at low temperature and on storage; details: for cristallise: general description, products prepared from orthoxylene
From the text: Cristallisation du produit XXO1 de l'exemple 1, du produit XX02 de l'exemple 1, et d'un mélange de 85 % en poids de XXO1 et 15 % en poids de XX02 (voir exemple 1) qu'on appelle XX05.
On effectue les mêmes essais que dans l'exemple 3 mais avec des produits XX01 et XX02 préparés comme dans l'exemple 1 sauf qu'on utilise un mélange de 75 % d'orthoxylène et 25 % de paraxylène ou bien de 100 % d'orthoxylène.

[3] = Breakdown voltage, alternating current 50 Hz, method 1 (ramp 2000 V/s, asymmetric point/disc electrodes); details: 50 Hz AC, point ø 0,6 mm, disc ø 39,6 mm, inter-electrode distance 3,2 mm, mean (extreme values)
From the text: as §1

tension de claquage ([1]; inter-electrode distance 3,2 mm) | tension de claquage ([1]; inter-electrode distance 10 mm) | tension de claquage ([1]; inter-electrode distance 15 mm) | tension de claquage ([1]; inter-electrode distance 20 mm) | Cristallisation ([2]; Example 3, products of Example 1 (from orthoxylene)) [°C] | cristallise [2] | tension de claquage [3] | Substance
41,2 (37,7-45,3) (5) | 69,5 (65,3-75,8) (5) | 82,4 (74-89) (5) | 93,8 (90,0-105,0) (5) | -40 | -40 °C |  | (méthylbenzyl)xylène [XX01]
 |  |  |  |  | solide à la température ambiante |  | di(méthylbenzyl)xylène
 |  |  |  |  |  | 39,0 (34,9-44,4) (10) | dodécylbenzène ramifié [DDB]
